Assay results taken from patent US20050049273A1, “Acridone derivatives as anti-herpesvirus agents” (priority 2003, published 2005).

Assays:
[1] = tested on: Epstein-Barr Virus (EBV) early antigen; conditions: published work; cited from earlier work
HSV-2 [2] = experiment: HSV-2 viral yield-reduction assay in Vero cells; format: cell-based, HSV-2 (strain 186); conditions: Human alphaherpesvirus 2, Vero, read-out: ED50 HSV-2
Method: (§1) Three types of antiviral assay were used for HSV studies. For plaque-elimination, Vero cells (70000 per cm^2) were infected with 50-100 PFU for 30 minutes with occasional agitation. The inoculate was replaced with medium containing 1% (v/v) fetal calf serum and supplemented with test agents as indicated (see below). After two days of culture, cells were processed using crystal violet staining and plaques were scored by visual examination (FIG. 3). For examination of anti-HSV activity in parallel cultures during biochemical experiments, the progeny virus obtained from cells and from the culture medium at 23 hours post-infection was determined by limiting dilution on Vero cells (FIG. 5A). Macroscopic viral plaques were scored after two days of incubation in medium containing 1% (w/v) carboxymethylcellulose and 0.5% (v/v) fetal calf serum. For ED50 measurements, the concentration of compound that reduced a single-cycle of viral yield by 50% relative to the control and under the specified condition was interpolated from dose-response graphs (FIG. 4, Table 1). Over the course of ten independent experiments, the mean cell-associated viral yield was 180 PFU per cell (SD=80) and 10 PFU per cell (SD=5) for HSV-1 and HSV-2 respectively. The percent viral release (into the culture medium) was 16 (SD=7) and 0.9 (SD=0.6) for HSV-1 and HSV-2 respectively. These virologic parameters were independent of viral load and serum concentration.

[3] = tested on: an assortment of human tumor cell lines; experiment: Replication of human tumor cell lines; format: cell-based; conditions: at 50 μM, data not shown
Method: (§2) The effect of compounds on host cell replication (CC50), was measured using Sulforhodamine B-staining and the spectrophotometric method originally developed for the NCIs's in vitro anti-cancer drug screening program (P. Skehan et al., J. Natl. Cancer. Inst. 82, 1107-1112 (1990)). The CC50 value is the concentration of compound that inhibited actively replicating cells by 50% of control respectively after two days of continuous treatment.

HEL Cells = experiment: HEL cells replicated in presence of compound for 12 days (morphology, replication rate); format: cell-based, human; conditions: 0.5 or five micromolar for 12 days (four passages)
Description: HEL Cells were replicated in the presence of either 0.5 or five micromolar compound 2 for 12 days (four passages) then they were compared to untreated HEL cells as a host for HCMV replication in the presence or absence of the drug. […] Cultures were infected with ten-times the viral load used for plaque assay and were fixed, stained and photographed after seven days of infection (panel B). A detailed method is described in the examples below. The horizontal rows labeled as HEL, HEL (0.5) and HEL (5.0) represent cells cultured in the absence or presence of 0.5 and 5 micromolar 2 respectively. Labeled columns indicate mock-infected (M), infected (I) and treated after viral infection with the same two concentrations of the compound.
(§3) To examine whether pre-treatment of cells influenced anti-HCMV activity of 1-hydroxy-3,7-dimethoxyacridone (2), a cytopathogenicity (CPE) reduction assay was used. The protocol was like the plaque-elimination assay except HEL cells were replicated in test compound (3-12 days or from 1-4 passages) prior to infection, cultures were infected with 500-1000 PFU HCMV and after five days, cells were stained with 0.8% (w/v) crystal violet in 50% ethanol in order to achieve contrast for photography.

HSV-1 = HSV-1 viral yield-reduction assay in Vero cells; format: cell-based, HSV-1 (KOS); conditions: Human alphaherpesvirus 1, Vero, read-out: ED50 HSV-1
Method: as §1

[4] = Vero cell growth inhibition (Sulforhodamine B protein-dye binding); format: cell-based, African green monkey; conditions: African green monkey; cell growth inhibition, two days of continuous treatment; read-out: CC50 Vero
Method: as §2

Vero = experiment: as above; format: cell-based, African green monkey
Method: as §2

HEL = HEL cell growth inhibition (Sulforhodamine B protein-dye binding); format: cell-based, human; conditions: at 50 μM
Method: as §2

[5] = as above; format: cell-based, human; conditions: human; cell growth inhibition, two days of continuous treatment
Method: as §2

HCMV [6] = experiment: HCMV cytopathogenicity (CPE) reduction assay in HEL cells; format: cell-based, HCMV (Towne)
Description: as §3

HCMV [7] = experiment: HCMV plaque-elimination assay in HEL cells; format: cell-based, HCMV (Towne)
Method: Virus and cell growth inhibition assays. Established virus culture techniques were used (E.-S. Huang, and T Kowalnick, Diagnosis of human cytomegalovirus infection: laboratory approaches, in Molecular Aspects of Human Cytomegalovirus Diseases (Becker,Y., Daria, G., and Huang, E.-S. eds.), Springer-Verlag, Berlin, pp. 225-255 (1993); Akanitapichat et al., Antiviral Research 45: 123-134 (2000)) but with the following modifications. For the HCMV plaque-elimination assay, HEL cells were plated in standard medium at 60,000 per cm^2 and infected the following day with 50-100 PFU HCMV for 90 minutes with occasional agitation. The inoculate was replaced with maintenance medium containing 5% (v/v) fetal calf serum and test agents as indicated (see below). After an additional 6-10 days of culture, cells were fixed with formal saline (10% formalin in phosphate-buffered saline; PBS), stained with 0.1% (w/v) toluidine blue in PBS and plaques were scored using an inverted light microscope at 40x magnification (FIGS. 2A and 3). For ED50 determination, the value was interpolated from dose-response data and is the concentration of compound that reduced plaque formation by 50% relative to control under the specified condition.

HSV-2 [8] = experiment: HSV-2 plaque-elimination assay in Vero cells; format: cell-based, HSV-2 (strain 186); conditions: 100 μM, data not shown
Method: as §1

Compound	concentration blocking activation of EBV early antigen [1]	EC50 (HSV-2 [2]) [µM]	inhibition of human tumor cell line replication [3]	effect on cell morphology and cell viability (HEL Cells)	EC50 (HSV-1) [µM]	CC50 at 2 days [4] [µM]	inhibition of Vero cell replication (Vero; at 50 μM)	percent inhibition observed at the highest concentration tested, Vero growth (Vero; number in parenthesis, highest concentration tested) [%]	inhibition of HEL cell replication (HEL)	CC50 at 2 days [5] [µM]	amelioration of HCMV cytopathogenicity after pre-treatment (HCMV [6]; HEL cells cultured 12 days in 0.5 μM before infection)	protective effect against HCMV cytopathogenicity after pre-treatment (HCMV [6]; HEL cells cultured 12 days in 5 μM before infection)	protection against HCMV cytopathogenicity (HCMV [6]; higher viral loads, with or without pretreatment of HEL cells)	EC50 (HCMV [7]; Human betaherpesvirus 5, HEL, read-out: ED50 HCMV) [µM]	selectivity as anti-HCMV agent (HCMV [7]; cell replication vs HCMV ED50)	effect on HSV at highest concentration tested (HSV-2 [8])
5-hydroxynoracronicine	submicromolar concentration	–	–	–	–	–	–	–	–	–	–	–	–	–	–	–
COc1cc(O)c2c(=O)c3cc(OC)ccc3[nH]c2c1 [Compound 2, 3,7-dimethoxy-1-hydroxy-acridone]	–	> 50	inactive	no effect on cell morphology or cell viability	> 50	> 50	inactive	7	inactive	> 50	some amelioration of HCMV cytopathogenicity	even apparent in the absence of sustained treatment post-infection	did not protect against HCMV cytopathogenicity unless HEL cells were pretreated prior to viral infection	1.4	greater than 35 fold	without effect on HSV
